From the supplement of paper PMC10307832

How the values were obtained:
Assay in all cases: relative viability (nuclei count vs DMSO), 5 days (fraction); higher = more cells survive
[1] = compound: C1CC2=C(C1)C=C(C=C2)OC3=NC(=C4C(=N3)N(C=N4)CC5=CC=C(C=C5)C6=CC=CC=C6)N[C@@H](CC7=CC=CC=C7)CO [QS11] + CC(=O)Nc1cccc(-n2c(=O)n(C3CC3)c(=O)c3c(Nc4ccc(I)cc4F)n(C)c(=O)c(C)c32)c1 [Trametinib] (partner 0.02 µM)
Summary of the method: (§1)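 Cells from lung cancer lines were seeded into 1536-well plates and, one day later, dosed by pin tool. Treatments were either a single drug or a fixed dose of an anchor drug with five library-drug doses (not always all listed) in √10 steps. After 5 days, nuclei were stained in a one-step fixation (final 0.05% Triton X-100, 1% formaldehyde, 1 ug/ml Hoechst) and counted on 4× images, and relative viability is the treated-to-vehicle nuclei ratio, as the median of duplicate plates.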

[2] = compound: C[As](C)SC[C@H](NC(=O)CC[C@H](N)C(=O)O)C(=O)NCC(=O)O [Darinaparsin] + O=C(c1cc(Cc2n[nH]c(=O)c3ccccc23)ccc1F)N1CCN(C(=O)C2CC2)CC1 [Olaparib] (partner 8 µM)
Summary of the method: as §1

[3] = compound: C1CC2=C(C1)C=C(C=C2)OC3=NC(=C4C(=N3)N(C=N4)CC5=CC=C(C=C5)C6=CC=CC=C6)N[C@@H](CC7=CC=CC=C7)CO [QS11] + CC1(C)CCC(c2ccc(Cl)cc2)=C(CN2CCN(c3ccc(C(=O)NS(=O)(=O)c4ccc(N[C@H](CCN5CCOCC5)CSc5ccccc5)c(S(=O)(=O)C(F)(F)F)c4)cc3)CC2)C1 [Navitoclax] (partner 0.5 µM)
Summary of the method: as §1

[4] = compound: CC1=C(C=C(C=C1)NC(=O)C2=CC(=CC=C2)C(C)(C)C#N)NC3=CC4=C(C=C3)N=CN(C4=O)C [AZ628] + CS(=O)(=O)N1CCN(Cc2cc3nc(-c4cccc5[nH]ncc45)nc(N4CCOCC4)c3s2)CC1 [Pictilisib] (partner 1 µM)
Summary of the method: as §1

[5] = compound: C1CC2=C(C1)C=C(C=C2)OC3=NC(=C4C(=N3)N(C=N4)CC5=CC=C(C=C5)C6=CC=CC=C6)N[C@@H](CC7=CC=CC=C7)CO [QS11] + O=C(CCCCCCC(=O)Nc1ccccc1)NO [Vorinostat] (partner 1 µM)
Summary of the method: as §1

## LCLC-97TM1
[1]; first compound 0.253 µM
  relative viability: 0.213
[1]; first compound 2.53 µM
  relative viability: 0.223
[1]; first compound 8 µM
  relative viability: 0.277
[2]; first compound 0.08 µM
  relative viability: 0.599
[2]; first compound 0.8 µM
  relative viability: 0.303
[2]; first compound 2.53 µM
  relative viability: 0.404
[2]; first compound 8 µM
  relative viability: 0.612
[3]; first compound 0.08 µM
  relative viability: 0.414
[3]; first compound 0.253 µM
  relative viability: 0.328
[3]; first compound 0.8 µM
  relative viability: 0.387
[3]; first compound 2.53 µM
  relative viability: 0.503
[3]; first compound 8 µM
  relative viability: 0.432
[4]; first compound 0.08 µM
  relative viability: 0.201
[4]; first compound 0.253 µM
  relative viability: 0.183
[4]; first compound 0.8 µM
  relative viability: 0.203
[4]; first compound 2.53 µM
  relative viability: 0.141
[4]; first compound 8 µM
  relative viability: 0.12
[5]; first compound 0.253 µM
  relative viability: 0.722
[5]; first compound 2.53 µM
  relative viability: 0.615
[5]; first compound 8 µM
  relative viability: 0.85
